{"source": "patent US6355799B1", "about": "“Substituted benzene compounds, process for their preparation, and herbicidal and defoliant compositions containing them” (ISK Americas Incorporated, priority 1997, dated 2002)", "assay_type_in_all_cases": "in vivo", "key": {"[1]": {"system": "upland rice (Oryza sp., var. Tebonnet, RICE)", "assay": "Pre-emerge test, crop safety", "settings": "pre-emerge, 14 days after application, scale 0-100", "procedure,_shortened": "(§1)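 Plants grown in 10 cm pots of sandy loam mix received acetone-dissolved compounds through a moving flat-fan nozzle. Doses ranged from 15 to 1000 g ai/ha. Pre-emerge pots were seeded one day earlier, post-emerge pots 8–21 days earlier. Fourteen days on, each pot was graded 0–100 for damage.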"}, "[2]": {"system": "field corn (Zea mays L., var. Dekalb 535, CORN)", "assay": "Pre-emerge test, crop safety", "settings": "pre-emerge, 14 days after application, scale 0-100", "procedure,_shortened": "as §1"}, "[3]": {"system": "upland rice (Oryza sp., var. Tebonnet, RICE)", "assay": "Post-emerge test, crop safety", "settings": "post-emerge, 14 days after application, rating scale 0-100", "procedure,_shortened": "(§2)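 Compounds in acetone were track-sprayed at 187 l/ha, 15–1000 g ai/ha, onto sandy loam pots. Pre-emerge seeds were sown one day before spraying, with surface watering afterwards. Post-emerge plants were at the 2–3 leaf stage and sprayed with 0.25% v/v non-ionic surfactant. Injury was rated 0–100 at 14 days.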"}, "[4]": {"system": "field corn (Zea mays L., var. Dekalb 535, CORN)", "assay": "Post-emerge test, crop safety", "settings": "post-emerge, 14 days after application, rating scale 0-100", "procedure,_shortened": "as §2"}, "[5]": {"system": "redroot pigweed (Amaranthus retroflexus, AMARE)", "assay": "Pre-emerge test, greenhouse herbicide activity screening", "settings": "pre-emerge, 14 days after application, scale 0-100", "procedure,_shortened": "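Rating: 0–100 visual injury, 14 DAA. Application: acetone, 187 l/ha, 15–1000 g ai/ha, flat-fan track sprayer with nozzle 40–45 cm above soil or canopy. Post-emerge runs used 0.25% v/v surfactant on 2–3 leaf plants.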"}, "[6]": {"system": "redroot pigweed (Amaranthus retroflexus, AMARE)", "assay": "Post-emerge test, greenhouse herbicide activity screening", "settings": "post-emerge, 14 days after application, rating scale 0-100", "excerpt": "(§3) A standard greenhouse herbicide activity screening system was used to evaluate the herbicidal efficacy and crop safety of these test compounds. Seven broadleaf weed species including redroot pigweed (Amaranthus retroflexus, AMARE, velvetleaf (Abutilon theophrasti, ABUTH), sicklepod (Cassia obtusifolia, CASOB), ivyleaf morningglory (Ipomoea hederacea, IPOHE), lambsquarters (Chenopodium album, CHEAL), common ragweed (Ambrosia artemisizfolia L., AMBEL), and cocklebur (Xanthium strumarium, XANST) were used as test species. Four grass weed species including green foxtail (Setaria viridis, SETVI), barnyardgrass (Echinochloa crus-galli, ECHCG), johnsongrass (Sorghum halepense, SORHA), and large crabgrass (Digitaria sanguinalis, DIGSA) were also used. In addition, three crop species, field corn (Zea mays L., var. Dekalb 535, CORN), soybean (Glycine max L., var. Pella 86, SOY), and is upland rice (Oryza sp., var. Tebonnet, RICE) were included.\n(§4) All plants were grown in 10 cm square plastic pots which were filled with a sandy loam soil mix. For pre-emerge tests, seeds were planted one day prior to application of the test compounds. For post-emerge tests, seeds were planted 8-21 days prior to the test to allow emergence and good foliage development prior to application of the test substances. At the time of the post-emerge application, plants of all species were usually at the 2-3 leaf stage of development.\n(§5) All test compounds Were dissolved in acetone and applied to the test units in a volume of 187 l /ha. Test materials were applied at rates ranging from 15 g ai/ha to 1000 g ai/ha using a track sprayer equipped with a TJ8001E even flow flat fan spray nozzle. Plants were arranged on a shelf so that the top of the canopy (post-emerge) or top of the soil surface (pre-emerge) was 40-45 cm below the nozzle. Pressurized air was used to force the test solution through the nozzle as it was mechanically advanced (via electrically driven chain drive) over the top of all test plants/pots. This application simulates a typical commercial field herbicide application.\n(§6) In the post-emerge test, a commercial non-ionic surfactant was also included (0.25% v/v) to enhance wetting of the leaf surfaces of target plants. Immediately after application, test units of the pre-emerge applications were watered at the soil surface to incorporate the test materials. Subsequently, these test units were bottom-watered. Post-emerge test units were always bottom-watered.\n(§7) At 14 days after application of the test materials, phytotoxicity ratings were recorded. A rating scale of 0-100 was used as previously described in Research Methods in Weed Science, 2nd edition, B. Truelove, Ed., Southern Weed Science Society, Auburn University, Auburn, Ala. 1977. Briefly, “0” corresponds to no damage and “100” corresponds to complete death of all plants in the test unit. This scale was used both to determine efficacy against weed species and damage to crop species. Herbicide activity data for various compounds of this invention, which are shown by compound No. in Tables 1-8, are shown in Tables 11 and 12."}, "[7]": {"system": "large crabgrass (Digitaria sanguinalis, DIGSA)", "assay": "Post-emerge test, greenhouse herbicide activity screening", "settings": "post-emerge, 14 days after application, rating scale 0-100", "excerpt": "as §3, §4, §5, §6, §7"}, "[8]": {"system": "ivyleaf morningglory (Ipomoea hederacea, IPOHE)", "assay": "Post-emerge test, greenhouse herbicide activity screening", "settings": "post-emerge, 14 days after application, rating scale 0-100", "excerpt": "as §3, §4, §5, §6, §7"}, "[9]": {"system": "barnyardgrass (Echinochloa crus-galli, ECHCG)", "assay": "Post-emerge test, greenhouse herbicide activity screening", "settings": "post-emerge, 14 days after application, rating scale 0-100", "excerpt": "as §3, §4, §5, §6, §7"}, "[10]": {"system": "green foxtail (Setaria viridis, SETVI)", "assay": "Post-emerge test, greenhouse herbicide activity screening", "settings": "post-emerge, 14 days after application, rating scale 0-100", "excerpt": "as §3, §4, §5, §6, §7"}, "[11]": {"system": "lambsquarters (Chenopodium album, CHEAL)", "assay": "Post-emerge test, greenhouse herbicide activity screening", "settings": "post-emerge, 14 days after application, rating scale 0-100", "excerpt": "as §3, §4, §5, §6, §7"}, "[12]": {"system": "velvetleaf (Abutilon theophrasti, ABUTH)", "assay": "Post-emerge test, greenhouse herbicide activity screening", "settings": "post-emerge, 14 days after application, rating scale 0-100", "excerpt": "as §3, §4, §5, §6, §7"}, "[13]": {"system": "sicklepod (Cassia obtusifolia, CASOB)", "assay": "Post-emerge test, greenhouse herbicide activity screening", "settings": "post-emerge, 14 days after application, rating scale 0-100", "excerpt": "as §3, §4, §5, §6, §7"}, "[14]": {"system": "large crabgrass (Digitaria sanguinalis, DIGSA)", "assay": "Pre-emerge test, greenhouse herbicide activity screening", "settings": "pre-emerge, 14 days after application, scale 0-100", "excerpt": "as §3, §4, §5, §6, §7"}, "[15]": {"system": "ivyleaf morningglory (Ipomoea hederacea, IPOHE)", "assay": "Pre-emerge test, greenhouse herbicide activity screening", "settings": "pre-emerge, 14 days after application, scale 0-100", "excerpt": "as §3, §4, §5, §6, §7"}, "[16]": {"system": "barnyardgrass (Echinochloa crus-galli, ECHCG)", "assay": "Pre-emerge test, greenhouse herbicide activity screening", "settings": "pre-emerge, 14 days after application, scale 0-100", "excerpt": "as §3, §4, §5, §6, §7"}, "[17]": {"system": "green foxtail (Setaria viridis, SETVI)", "assay": "Pre-emerge test, greenhouse herbicide activity screening", "settings": "pre-emerge, 14 days after application, scale 0-100", "excerpt": "as §3, §4, §5, §6, §7"}, "[18]": {"system": "lambsquarters (Chenopodium album, CHEAL)", "assay": "Pre-emerge test, greenhouse herbicide activity screening", "settings": "pre-emerge, 14 days after application, scale 0-100", "excerpt": "as §3, §4, §5, §6, §7"}, "[19]": {"system": "velvetleaf (Abutilon theophrasti, ABUTH)", "assay": "Pre-emerge test, greenhouse herbicide activity screening", "settings": "pre-emerge, 14 days after application, scale 0-100", "excerpt": "as §3, §4, §5, §6, §7"}, "[20]": {"system": "sicklepod (Cassia obtusifolia, CASOB)", "assay": "Pre-emerge test, greenhouse herbicide activity screening", "settings": "pre-emerge, 14 days after application, scale 0-100", "excerpt": "as §3, §4, §5, §6, §7"}}}
{"smiles": "COc1c(Cl)cc(F)c(-n2c(=O)cc(C(F)(F)F)n(C)c2=O)c1NC(=O)COc1ccc(Cl)cc1", "note": "[2-135]", "values": [{"measurement": "phytotoxicity rating RICE (crop damage)", "setting": "[1]; 63 g ai/ha", "result": 0}, {"measurement": "phytotoxicity rating RICE (crop damage)", "setting": "[1]; 250 g ai/ha", "result": 35}, {"measurement": "phytotoxicity rating CORN (crop damage)", "setting": "[2]; 63 g ai/ha", "result": 0}, {"measurement": "phytotoxicity rating CORN (crop damage)", "setting": "[2]; 250 g ai/ha", "result": 0}, {"measurement": "RICE phytotoxicity rating (crop damage)", "setting": "[3]; 63 g ai/ha", "result": 20}, {"measurement": "RICE phytotoxicity rating (crop damage)", "setting": "[3]; 250 g ai/ha", "result": 40}, {"measurement": "CORN phytotoxicity rating (crop damage)", "setting": "[4]; 63 g ai/ha", "result": 10}, {"measurement": "CORN phytotoxicity rating (crop damage)", "setting": "[4]; 250 g ai/ha", "result": 25}, {"measurement": "phytotoxicity rating AMARE", "setting": "[5]; 63 g ai/ha", "result": 95}, {"measurement": "phytotoxicity rating AMARE", "setting": "[5]; 250 g ai/ha", "result": 100}, {"measurement": "AMARE phytotoxicity rating", "setting": "[6]; 63 g ai/ha", "result": 100}, {"measurement": "AMARE phytotoxicity rating", "setting": "[6]; 250 g ai/ha", "result": 100}, {"measurement": "DIGSA phytotoxicity rating", "setting": "[7]; 63 g ai/ha", "result": 0}, {"measurement": "DIGSA phytotoxicity rating", "setting": "[7]; 250 g ai/ha", "result": 10}, {"measurement": "IPOHE phytotoxicity rating", "setting": "[8]; 63 g ai/ha", "result": 100}, {"measurement": "IPOHE phytotoxicity rating", "setting": "[8]; 250 g ai/ha", "result": 95}, {"measurement": "ECHCG phytotoxicity rating", "setting": "[9]; 63 g ai/ha", "result": 0}, {"measurement": "ECHCG phytotoxicity rating", "setting": "[9]; 250 g ai/ha", "result": 20}, {"measurement": "SETVI phytotoxicity rating", "setting": "[10]; 63 g ai/ha", "result": 15}, {"measurement": "SETVI phytotoxicity rating", "setting": "[10]; 250 g ai/ha", "result": 40}, {"measurement": "CHEAL phytotoxicity rating", "setting": "[11]; 63 g ai/ha", "result": 100}, {"measurement": "CHEAL phytotoxicity rating", "setting": "[11]; 250 g ai/ha", "result": 100}, {"measurement": "ABUTH phytotoxicity rating", "setting": "[12]; 63 g ai/ha", "result": 100}, {"measurement": "ABUTH phytotoxicity rating", "setting": "[12]; 250 g ai/ha", "result": 100}, {"measurement": "CASOB phytotoxicity rating", "setting": "[13]; 63 g ai/ha", "result": 70}, {"measurement": "CASOB phytotoxicity rating", "setting": "[13]; 250 g ai/ha", "result": 100}, {"measurement": "phytotoxicity rating DIGSA", "setting": "[14]; 63 g ai/ha", "result": 60}, {"measurement": "phytotoxicity rating DIGSA", "setting": "[14]; 250 g ai/ha", "result": 95}, {"measurement": "phytotoxicity rating IPOHE", "setting": "[15]; 63 g ai/ha", "result": 20}, {"measurement": "phytotoxicity rating IPOHE", "setting": "[15]; 250 g ai/ha", "result": 100}, {"measurement": "phytotoxicity rating ECHCG", "setting": "[16]; 63 g ai/ha", "result": 10}, {"measurement": "phytotoxicity rating ECHCG", "setting": "[16]; 250 g ai/ha", "result": 30}, {"measurement": "phytotoxicity rating SETVI", "setting": "[17]; 63 g ai/ha", "result": 80}, {"measurement": "phytotoxicity rating SETVI", "setting": "[17]; 250 g ai/ha", "result": 100}, {"measurement": "phytotoxicity rating CHEAL", "setting": "[18]; 63 g ai/ha", "result": 100}, {"measurement": "phytotoxicity rating CHEAL", "setting": "[18]; 250 g ai/ha", "result": 100}, {"measurement": "phytotoxicity rating ABUTH", "setting": "[19]; 63 g ai/ha", "result": 90}, {"measurement": "phytotoxicity rating ABUTH", "setting": "[19]; 250 g ai/ha", "result": 100}, {"measurement": "phytotoxicity rating CASOB", "setting": "[20]; 63 g ai/ha", "result": 10}, {"measurement": "phytotoxicity rating CASOB", "setting": "[20]; 250 g ai/ha", "result": 60}]}
